Experiment in all cases: KINOMEscan
Common to all, as to format: binding

In one test the target is MEK2 (Homo sapiens, UniProt P36507). The note with it: 1 μM of compound 4; read-out: POC.
Another test addresses PLK3 (Homo sapiens, UniProt Q9H4B4). The settings on record: 1 μM of compound 4; read-out: POC.
The test system of another test is FLT3(ITD + F691L). The note with it: 1 μM of compound 4.
The target of a further test is KIT(V559D) (Homo sapiens, UniProt P10721, V559D). The settings on record: 1 μM of compound 4; read-out: POC.
Another test concerns the target T1, EPHA6 (Homo sapiens, UniProt Q9UF33).
T1 construct: purchased Eurofins DiscoverX (KINOMEscan service)
The settings on record: 1 μM of compound 4; read-out: POC.

A further test has as its target PIK4CB (Homo sapiens, UniProt Q9UBF8). The settings on record: 1 μM of compound 4; read-out: POC.
The target in a further test is T2, TRPM6 (Homo sapiens, UniProt Q9BX84).
T2 construct: purchased Eurofins DiscoverX Corporation
The note with it: 1 μM of compound 4; read-out: POC.

In another test the target is CIT (Homo sapiens, UniProt O14578). The note with it: 1 μM of compound 4; read-out: POC.
The target in test [1] is T3, TYK2(JH2domain-pseudokinase) (Homo sapiens, UniProt P29597).
T3 construct: TYK2(JH2domain-pseudokinase); purchased Eurofins DiscoverX
The note with it: 1 μM of compound 4; read-out: POC.

The next test has as its target CAMK1B (Homo sapiens, UniProt Q6P2M8). The note with it: 1 μM of compound 4; read-out: POC.
The target in test [2] is T4, RSK1(Kin.Dom.2-C-terminal) (Homo sapiens, UniProt Q15418).
T4 construct: RSK1(Kin.Dom.2-C-terminal); purchased Eurofins DiscoverX Corporation (KINOMEscan screening service)
The note with it: 1 μM of compound 4; read-out: POC.

For the next test, the target named is T5, STK39 (Homo sapiens, UniProt Q9UEW8).
T5 construct: purchased Eurofins DiscoverX (KINOMEscan service)
The settings on record: 1 μM of compound 4; read-out: POC.

Another test concerns the target T6, ERK1 (Homo sapiens, UniProt P27361).
T6 construct: purchased Eurofins DiscoverX Corporation
The note with it: 1 μM of compound 4; read-out: POC.

A further test concerns the target PKMYT1 (Homo sapiens, UniProt Q99640). The note with it: 1 μM of compound 4; read-out: POC.
The target in another test is T7, ABL1-phosphorylated (Homo sapiens, UniProt P00519).
T7 construct: purchased Eurofins DiscoverX Corporation
The settings on record: 1 μM of compound 4; read-out: POC.

A further test has as its target T8, YSK1 (Homo sapiens, UniProt O00506).
T8 construct: purchased Eurofins DiscoverX
The settings on record: 1 μM of compound 4; read-out: POC.

Another test deals with T9, ERK2 (Homo sapiens, UniProt P28482).
T9 construct: purchased Eurofins DiscoverX Corporation
The settings on record: 1 μM of compound 4; read-out: POC.

PKMYT1, sequence (Q99640 whole entry): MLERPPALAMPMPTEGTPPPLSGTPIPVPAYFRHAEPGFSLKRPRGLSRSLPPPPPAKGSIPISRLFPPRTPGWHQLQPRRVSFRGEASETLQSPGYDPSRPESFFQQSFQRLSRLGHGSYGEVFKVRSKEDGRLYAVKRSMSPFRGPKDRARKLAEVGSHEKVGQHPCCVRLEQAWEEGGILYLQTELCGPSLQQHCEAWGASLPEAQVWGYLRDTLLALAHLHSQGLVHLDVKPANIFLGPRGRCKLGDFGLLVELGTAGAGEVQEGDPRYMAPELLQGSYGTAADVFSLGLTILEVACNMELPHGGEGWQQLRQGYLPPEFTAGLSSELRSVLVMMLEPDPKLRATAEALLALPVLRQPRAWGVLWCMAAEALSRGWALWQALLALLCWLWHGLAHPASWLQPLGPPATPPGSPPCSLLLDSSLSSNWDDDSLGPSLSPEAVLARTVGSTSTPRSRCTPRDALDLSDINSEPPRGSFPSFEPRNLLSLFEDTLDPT
KIT(V559D), sequence (P10721 26-976 V559D): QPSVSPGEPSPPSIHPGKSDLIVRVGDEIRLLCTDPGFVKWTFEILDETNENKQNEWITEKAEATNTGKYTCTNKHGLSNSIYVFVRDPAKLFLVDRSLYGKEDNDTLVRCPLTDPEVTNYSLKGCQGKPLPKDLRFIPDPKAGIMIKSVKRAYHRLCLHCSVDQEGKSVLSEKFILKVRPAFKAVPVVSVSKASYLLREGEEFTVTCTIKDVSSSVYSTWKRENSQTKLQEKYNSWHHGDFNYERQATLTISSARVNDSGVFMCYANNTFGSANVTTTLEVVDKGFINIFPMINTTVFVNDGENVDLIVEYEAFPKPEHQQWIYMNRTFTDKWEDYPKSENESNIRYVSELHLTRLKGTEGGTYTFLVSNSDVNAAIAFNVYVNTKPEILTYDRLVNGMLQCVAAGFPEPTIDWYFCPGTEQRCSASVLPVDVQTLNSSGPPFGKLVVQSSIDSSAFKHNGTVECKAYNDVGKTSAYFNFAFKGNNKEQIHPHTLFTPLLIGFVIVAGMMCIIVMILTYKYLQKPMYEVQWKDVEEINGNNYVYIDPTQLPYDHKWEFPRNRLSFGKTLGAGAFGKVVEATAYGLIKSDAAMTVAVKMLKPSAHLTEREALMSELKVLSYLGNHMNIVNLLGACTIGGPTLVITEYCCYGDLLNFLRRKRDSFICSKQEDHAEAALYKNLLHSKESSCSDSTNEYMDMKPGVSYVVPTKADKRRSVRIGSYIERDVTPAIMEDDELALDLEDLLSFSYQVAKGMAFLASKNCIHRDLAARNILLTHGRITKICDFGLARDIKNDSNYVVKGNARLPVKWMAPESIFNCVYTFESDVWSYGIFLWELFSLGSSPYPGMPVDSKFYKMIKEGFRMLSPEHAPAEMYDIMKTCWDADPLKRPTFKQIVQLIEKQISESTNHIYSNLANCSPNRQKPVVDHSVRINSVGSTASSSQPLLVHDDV
T6 sequence (P27361 whole entry): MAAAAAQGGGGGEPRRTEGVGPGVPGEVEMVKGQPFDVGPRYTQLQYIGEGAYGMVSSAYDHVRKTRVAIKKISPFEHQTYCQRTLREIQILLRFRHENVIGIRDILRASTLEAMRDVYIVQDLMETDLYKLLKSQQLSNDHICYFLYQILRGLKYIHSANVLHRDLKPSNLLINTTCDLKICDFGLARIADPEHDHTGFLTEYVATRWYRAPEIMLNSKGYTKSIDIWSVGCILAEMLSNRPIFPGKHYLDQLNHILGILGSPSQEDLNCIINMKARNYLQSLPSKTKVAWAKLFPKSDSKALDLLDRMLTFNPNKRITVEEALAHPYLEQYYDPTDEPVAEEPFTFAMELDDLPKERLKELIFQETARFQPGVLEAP
PLK3, sequence (Q9H4B4 whole entry): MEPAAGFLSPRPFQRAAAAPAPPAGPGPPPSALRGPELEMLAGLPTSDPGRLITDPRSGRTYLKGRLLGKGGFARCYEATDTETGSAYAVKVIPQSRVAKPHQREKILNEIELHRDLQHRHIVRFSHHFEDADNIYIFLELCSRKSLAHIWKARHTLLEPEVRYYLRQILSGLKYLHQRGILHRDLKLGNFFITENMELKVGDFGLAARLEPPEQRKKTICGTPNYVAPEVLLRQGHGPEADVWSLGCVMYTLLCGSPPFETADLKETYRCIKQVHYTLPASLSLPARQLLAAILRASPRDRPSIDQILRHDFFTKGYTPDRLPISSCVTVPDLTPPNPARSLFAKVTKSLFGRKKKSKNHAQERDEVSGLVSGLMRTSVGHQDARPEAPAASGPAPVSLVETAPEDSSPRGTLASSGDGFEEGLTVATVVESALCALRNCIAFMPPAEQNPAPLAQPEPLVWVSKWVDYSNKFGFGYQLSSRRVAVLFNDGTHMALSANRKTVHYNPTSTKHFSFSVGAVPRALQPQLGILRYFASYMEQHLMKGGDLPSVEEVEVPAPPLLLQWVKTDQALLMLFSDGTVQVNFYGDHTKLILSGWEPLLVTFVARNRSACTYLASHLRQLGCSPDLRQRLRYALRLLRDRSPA
T1 sequence (Q9UF33 23-1036): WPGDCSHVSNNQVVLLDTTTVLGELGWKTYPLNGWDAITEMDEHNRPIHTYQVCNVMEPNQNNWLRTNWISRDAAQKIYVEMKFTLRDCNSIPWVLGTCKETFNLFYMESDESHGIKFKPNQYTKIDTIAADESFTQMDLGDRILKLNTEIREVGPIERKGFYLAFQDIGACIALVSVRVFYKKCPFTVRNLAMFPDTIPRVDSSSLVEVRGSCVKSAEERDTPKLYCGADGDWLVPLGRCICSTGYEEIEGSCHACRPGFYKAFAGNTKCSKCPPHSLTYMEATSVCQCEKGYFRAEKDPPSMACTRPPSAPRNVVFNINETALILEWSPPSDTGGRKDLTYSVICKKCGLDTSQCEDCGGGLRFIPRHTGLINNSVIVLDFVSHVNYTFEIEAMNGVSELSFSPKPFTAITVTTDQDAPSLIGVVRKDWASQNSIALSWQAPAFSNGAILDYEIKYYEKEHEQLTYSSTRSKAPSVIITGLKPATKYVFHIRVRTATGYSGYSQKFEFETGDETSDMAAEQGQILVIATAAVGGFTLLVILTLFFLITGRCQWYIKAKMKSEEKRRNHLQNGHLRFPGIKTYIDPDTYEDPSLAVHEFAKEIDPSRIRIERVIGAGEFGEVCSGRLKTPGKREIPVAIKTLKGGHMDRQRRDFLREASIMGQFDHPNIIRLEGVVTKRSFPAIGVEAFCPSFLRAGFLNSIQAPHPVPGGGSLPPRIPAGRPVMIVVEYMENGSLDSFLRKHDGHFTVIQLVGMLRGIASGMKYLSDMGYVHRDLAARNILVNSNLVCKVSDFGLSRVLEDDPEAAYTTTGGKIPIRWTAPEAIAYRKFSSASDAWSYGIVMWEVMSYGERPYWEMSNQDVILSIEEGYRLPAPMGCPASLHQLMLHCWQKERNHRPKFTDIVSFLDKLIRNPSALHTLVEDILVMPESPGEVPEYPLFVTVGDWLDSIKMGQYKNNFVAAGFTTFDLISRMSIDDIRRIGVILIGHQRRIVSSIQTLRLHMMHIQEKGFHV
T8 sequence (O00506 whole entry): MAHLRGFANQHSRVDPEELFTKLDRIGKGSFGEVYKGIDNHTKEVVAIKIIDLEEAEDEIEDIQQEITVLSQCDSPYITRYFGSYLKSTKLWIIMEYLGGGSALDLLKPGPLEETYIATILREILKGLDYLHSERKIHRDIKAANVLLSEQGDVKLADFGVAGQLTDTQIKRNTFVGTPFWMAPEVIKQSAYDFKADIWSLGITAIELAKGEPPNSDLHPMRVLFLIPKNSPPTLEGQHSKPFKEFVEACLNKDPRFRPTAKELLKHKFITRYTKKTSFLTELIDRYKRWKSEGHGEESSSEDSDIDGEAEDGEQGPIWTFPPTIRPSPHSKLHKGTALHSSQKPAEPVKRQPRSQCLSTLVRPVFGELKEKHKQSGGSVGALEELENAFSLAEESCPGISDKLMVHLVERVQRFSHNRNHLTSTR
T4 sequence (Q15418 418-675 limits assumed): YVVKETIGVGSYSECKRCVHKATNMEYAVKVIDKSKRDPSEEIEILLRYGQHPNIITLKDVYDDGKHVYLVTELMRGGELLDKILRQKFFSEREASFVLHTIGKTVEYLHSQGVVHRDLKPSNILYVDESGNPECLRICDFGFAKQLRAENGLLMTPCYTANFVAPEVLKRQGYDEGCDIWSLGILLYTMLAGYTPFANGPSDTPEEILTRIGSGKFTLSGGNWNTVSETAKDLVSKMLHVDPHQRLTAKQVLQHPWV
T9 sequence (P28482 whole entry): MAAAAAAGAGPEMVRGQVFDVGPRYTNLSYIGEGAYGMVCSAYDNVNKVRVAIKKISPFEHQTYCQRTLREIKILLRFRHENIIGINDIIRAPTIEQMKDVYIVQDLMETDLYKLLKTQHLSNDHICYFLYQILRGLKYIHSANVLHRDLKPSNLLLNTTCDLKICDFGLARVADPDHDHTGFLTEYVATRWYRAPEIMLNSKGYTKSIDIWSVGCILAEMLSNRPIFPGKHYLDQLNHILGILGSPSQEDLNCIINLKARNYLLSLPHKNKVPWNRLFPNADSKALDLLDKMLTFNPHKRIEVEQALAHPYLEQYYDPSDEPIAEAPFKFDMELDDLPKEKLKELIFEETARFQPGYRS
CAMK1B, sequence (Q6P2M8 whole entry): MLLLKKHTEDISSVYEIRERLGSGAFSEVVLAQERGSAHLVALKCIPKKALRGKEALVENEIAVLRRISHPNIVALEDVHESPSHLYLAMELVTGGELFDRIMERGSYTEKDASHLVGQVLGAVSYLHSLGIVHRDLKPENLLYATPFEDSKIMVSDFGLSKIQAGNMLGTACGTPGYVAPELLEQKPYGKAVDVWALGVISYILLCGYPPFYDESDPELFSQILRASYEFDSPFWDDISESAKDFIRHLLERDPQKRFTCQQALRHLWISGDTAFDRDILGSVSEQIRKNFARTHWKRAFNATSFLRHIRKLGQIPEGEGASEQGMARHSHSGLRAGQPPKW

As for `C=CC(=O)Nc1ccc(OC)c(Nc2cc(-c3[nH]c(CC)nc3-c3cccc(NC(=O)c4cccc5c4NC(=O)c4ccccc4N5)c3)ccn2)c1` [Compound 4, N-(3-(5-(2-((5-Acrylamido-2-methoxyphenyl)amino)pyridin-4-yl)-2-ethyl-1H-imidazol-4-yl)phenyl)-11-oxo-10,11-dihydro-5H-dibenzo[b,e][1,4]diazepine-9-carboxamide], the remaining binding at 1 µM on MEK2 came out at 100%; on PLK3, 87%; at KIT(V559D), 100%; on EPHA6, 90%; on PIK4CB, 93%; at TRPM6, 99%. The remaining binding at 1 µM came to 6.3% on CIT; 100% in [1]; 94% on CAMK1B; 75% in test [2]; 85% at STK39; 99% on ERK1. Besides, the remaining binding at 1 µM at PKMYT1 amounted to 99%; on ABL1-phosphorylated, 80%; at YSK1, 76%; at ERK2, 100%. In addition, the POC in the test with FLT3(ITD + F691L) was found to be 79.
